Data from PMC8298232 (Archives of Toxicology, 2021).

Experiments:
[1] = Kinetics of UV 328 and its metabolites in blood after single oral exposure of volunteers; assay type: in vivo, human
Protocol: Furthermore, blood samples were drawn from each volunteer 2, 4, 6, 8, 10, 24, […] 48 h after exposure. In summary, […] blood samples were collected from every volunteer. One volunteer donated two EDTA—Monovettes® (Sarstedt, Nümbrecht, Germany) for every time point. So, for every sampling time one sample was kept as whole blood while the plasma fraction was extracted for the other. In this case, the respective blood vessels were centrifuged at 800 × g for 5 min. The supernatants were transferred to 15 mL conical plastic tubes (Sarstedt, Nümbrecht, Germany). Both blood and plasma samples were stored frozen at − 50 °C until analysis.
Analysis of blood samples was performed according to a previously published method (Denghel and Göen [2021]). In summary, blood proteins and cellular components were precipitated by the addition of ACN. Afterwards, the supernatant was diluted with sodium chloride solution and the investigated analytes were extracted by dispersive liquid–liquid microextraction (DLLME) using a mixture of CH2Cl2 and ACN. […] Variation coefficients ranged from 2 to 9% for precision in series and from 3 to 11% for interday precision. Additionally, relative recovery rates between 80 and 100% were found.
The ln-transformed mean excretion curve was plotted against the time (in h) to obtain the slope (kel, elimination rate constant) and the excretion half-life (t1/2) as follows: t1/2=ln2/|kel|.

[2] = Distribution between blood compartments (plasma to blood ratio); assay type: in vivo, human
Protocol: Furthermore, blood samples were drawn from each volunteer 2, 4, 6, 8, 10, 24, 34 and 48 h after exposure. In summary, eight blood samples were collected from every volunteer. […] So, for every sampling time one sample was kept as whole blood while the plasma fraction was extracted for the other. In this case, the respective blood vessels were centrifuged at 800 × g for 5 min. The supernatants were transferred to 15 mL conical plastic tubes (Sarstedt, Nümbrecht, Germany). Both blood and plasma samples were stored frozen at − 50 °C until analysis.
Therefore, the concentrations of the analytes in whole blood and plasma were determined according to the SOP (Denghel and Göen [2021]) and an established procedure (see supplemental material), respectively. The results for whole blood and plasma were plotted against the time points of the respective sampling and the plasma to blood ratios (p/b) were calculated by a simplified approach for estimating the AUC ratios. Therefore, all plasma concentrations (in µg/L) determined were added and divided through the sum of the respective blood concentrations (in µg/L) according to the equation: p/b=∑i=0ncplasma/∑i=0ncblood.
Analysis of plasma samples
For the analysis of plasma samples, the procedure for blood samples was adjusted as follows: Initially, CPD plasma was equilibrated to room temperature and homogenized by manual shaking. Frozen samples of the study participants were thawed, equilibrated to room temperature, and homogenized using a vortex mixer. Aliquots of 1 mL were prepared with 10 µL of the internal standard mix. Afterwards, the plasma proteins were precipitated by the additions of 3 mL ACN with 0.1 % formic acid. The samples were vortex-blended for 1 min and centrifuged for 15 min at 3000 x g. The supernatants were transferred into 25 mL tubes with conical bottom (Sarstedt, Nümbrecht, Germany) and diluted with 4 mL of 1 % sodium chloride solution. Afterwards, a mixture of 800 µL CH 2Cl2 and 800 µL ACN was added to every tube. Again, the samples were vortex - blended for 1 min and centrifuged for 15 min at 3000 x g. The upper organic phases wer e transferred into 3 mL screw vials (Müller + Krempel AG, Bülach, Switzerland) and dried under nitrogen. The residues were derivatized with 90 µL BSA + 5 % TMCS. After 30 min reaction time at room temperature, 10 µL of 10 % TSIM were added. The samples wer e transferred to micro inserts, sealed with crimping caps, and incubated at 40 °C for 90 min. Finally, measurement was performed using GC -MS/MS

[3] = Renal elimination kinetics of UV 328 and its metabolites in urine after single oral exposure
Protocol: Three volunteers (two men and one person, mean age 37.3 ± 15.5, mean body weight 81.3 ± 6.1 kg) were selected for the in vivo study. Prior to oral exposure, every volunteer collected one urine sample. Additionally, one blood sample was taken using EDTA-Monovettes® (Sarstedt, Nümbrecht, Germany) before exposure. […] Thereby, a safety factor of 100 was considered for single application and interspecies differences, resulting in a dose of 0.3 mg/kg bw. […] Participants collected the total urine volume of each void separately throughout 72 h and recorded the respective sampling times. […] The urine samples were volumetrically measured for each sampling point, aliquoted in urine Monovettes® (Sarstedt, Nümbrecht, Germany) and stored frozen at − 50 °C until analysis.
The urine samples were processed according to a previously published procedure (Denghel and Göen [2020]). In brief, urine samples were enzymatically hydrolyzed using β-glucuronidase/arylsulfatase from Helix pomatia. […] The extracts were derivatized with BSA/TMCS and TSIM and finally measured via GC–MS/MS with advanced electron ionization (AEI).
Thereby, RE,i is the renal excretion rate for the urine sample i (in µg/h), ci is the analyte concentration in the urine sample (in µg/L), Vi is the volume of the urine sample (in L) and ti and ti-1 are the elapsed time values (in h) of the sample and the previous sample, respectively.
Afterwards, the time course of the excretion rates RE,i was recorded for the middle of the respective sampling period (ti,m in h) according to the equation: ti,m=ti-1+ti-ti-1/2.
The current excretion rates were plotted as a function of the average time of the respective sampling period for every volunteer and each analyte.
Finally, mean excretion curves were calculated by taking the average of related urinary sampling times and the corresponding renal excretion rates (in µg/h) for all volunteers’ samples (arithmetic mean ± standard deviation). The mean cumulative excreted amount (in µmol) of all volunteers was obtained by addition of each molar excreted amount: ∑i=0nci×Vi/M.
Thereby, ci is the concentration of the metabolite in urine (in µg/L), Vi is the volume of the respective urine sample (in L) and M is the molar mass of the respective metabolite (in µg/µmol).
Afterwards, excretion half-lives (t1/2) (in h) were ascertained as described in Sect. “Evaluation of blood kinetics” by plotting the current excretion rates as function of time.

[4] = Shares of conjugated analytes in urine (analysis with and without β-glucuronidase/arylsulfatase hydrolysis); details: for Conjugation ratio: urine of one volunteer, with vs without hydrolysis
Protocol: The analysis of urine samples was performed with and without hydrolysis for one volunteer to determine the shares of analytes conjugated with glucuronic acid or sulfate. Initially, urine samples were thawed, equilibrated to room temperature and homogenized using a vortex mixer. Afterwards, the Monovettes® were centrifuged for 2 min at 1600 g to sediment solid residue in the sample. 1 mL of the sample was transferred into a 15 mL conical tube (Sarstedt, Nümbrecht, Germany). Without hydrolysis, 1 mL of the urine samples was prepared with 200 μL of ammonium acetate buffer (1 mol/L, pH 6) and 10 μL of the internal standard mix solution. […] Finally, the calculated analyte excretion rates (see Sect. “Evaluation of renal elimination”) obtained with hydrolysis were correlated with the ones prepared without hydrolysis for every detected compound. A linear curve fit was applied to the plotted data points. The resulting slope of the regression line described the percentage of free and therefore unconjugated analyte.
Therefore, urine samples of one volunteer were analyzed with and without addition of β-glucuronidase/arylsulfatase from Helix pomatia and incubation according to the standard procedure previously published (Denghel and Göen [2020]) (see Sect. “Analysis of urine samples without hydrolysis”).

CCC(C)(C)c1cc(C(C)(C)C(C)O)cc(-n2nc3ccccc3n2)c1O (stereo not shown) [UV 328-4/3-OH, 2-(2H-benzotriazol-2-yl)-4-(3-hydroxy-2-methylbutan-2-yl)-6-(tert-pentyl)phenol]
share among the quantified metabolites in blood ([1]; blood samples 8 h after exposure, without hydrolysis, n = 3): 19.5 ± 4.9% | Cmax ([1]; both sexes, human, whole blood, po, 0.3 mg/kg bw, human whole blood, oral 0.3 mg UV 328/kg body weight, mean ± SD, n = 3): 7.4 ± 0.9 ng/mL | Tmax ([1]; both sexes, human, whole blood, po, 0.3 mg/kg bw, human whole blood, oral 0.3 mg UV 328/kg body weight, n = 3, read-out: tmax in blood): 10 h | half-life ([1]; both sexes, human, whole blood, po, 0.3 mg/kg, first elimination phase, human blood, oral 0.3 mg/kg bw, n = 3, read-out: t1/2 (0–24 h) in blood (converted)): 5.9 h | half-life ([1]; both sexes, human, whole blood, po, 0.3 mg/kg, second elimination phase, human blood, oral 0.3 mg/kg bw, n = 3, read-out: t1/2 (24–48 h) in blood (converted)): 15.7 h | concentration at 24 h ([1]; both sexes, whole blood, human blood, 24 h after oral 0.3 mg/kg bw, mean ± SD, n = 3, read-out: mean blood level 24 h after exposure): 1.5 ± 0.5 ng/mL | tmax in blood ([1]; human whole blood, oral 0.3 mg UV 328/kg body weight, n = 3): 8 h | p/b ratio (plasma to blood ratio) ([2]; sum of plasma concentrations / sum of blood concentrations, one volunteer (n = 1)): 2.1 | Tmax ([3]; both, human, urine, po, 0.3 mg/kg): 9.3 h | half-life ([3]; both, human, urine, po, 0.3 mg/kg, t½ (renal elimination half-life), human urine, monophasic, oral 0.3 mg/kg bw, n = 3): 46.4 h | REmax (maximum renal excretion rate) ([3]; human urine with hydrolysis, oral 0.3 mg/kg bw, mean ± SD, n = 3): 0.10 ± 0.04 µg/h | FUE after 24 h (urinary excretion factor as dose equivalents of UV 328) ([3]; human urine, 0–24 h, mean ± SD, n = 3): 0.004 ± 0.001% | FUE after 72 h ≙ Fraction of oral dose ([3]; human urine, 0–72 h, mean ± SD, n = 3): 0.007 ± 0.003% | share of cumulative amounts of all quantified analytes in urine ([3]; urine with hydrolysis, cumulative within 72 h, n = 3): 6.1 ± 2.3% | Conjugation ratio [4]: 100%

CCC(C)(C)c1cc(-n2nc3ccccc3n2)c(O)c(C(C)(C)C(C)=O)c1 [UV 328-6/3-CO, 2-(2H-benzotriazol-2-yl)-6-(2-methylbutan-3-on-2-yl)-4-(tert-pentyl)phenol]
plateau concentration in blood ([1]; human blood, plateau until 48 h after exposure): ~0.1 µg/L | cmax in blood ([1]; human whole blood, oral 0.3 mg UV 328/kg body weight, mean ± SD, n = 3): < LOQ | detection in urine samples after exposure ([3]; post-dosage human urine, collected until 72 h): not detected

CCC(C)(C)c1cc(-n2nc3ccccc3n2)c(O)c(C(C)(C)C(C)O)c1 (stereo not shown) [UV 328-6/3-OH, 2-(2H-benzotriazol-2-yl)-6-(3-hydroxy-2-methylbutan-2-yl)-4-(tert-pentyl)phenol]
concentration at 24 h ([1]; both sexes, human, in vivo, po, 0.3 mg/kg): 5.2 ± 0.6 ng/mL | half-life ([1]; both sexes, human, in vivo, po, 0.3 mg/kg, t1/2 (0–24 h) in blood): 9 h | half-life ([1]; both sexes, human, in vivo, po, 0.3 mg/kg, t1/2 (24–48 h) in blood): 17.9 h | Tmax ([1]; both sexes, human, in vivo, po, tmax in blood): 8 h | tmax in blood ([1]; both, human, in vivo, po): 10 h | p/b ratio (plasma to blood ratio) ([2]; human, in vivo): 2.3 | share excreted via urine without conjugation to glucuronic acid or sulfate ([4]; human, in vivo): about 3% | Conjugation ratio [4]: 97%

CCC(C)(C)c1cc(-n2nc3ccc(O)cc3n2)c(O)c(C(C)(C)CC)c1 [UV 328-BTOH, 2-(2H-5-hydroxybenzotriazol-2-yl)-4,6-(di-tert-pentyl)phenol]
detection in blood samples after exposure ([1]; human, in vivo, po, 0.3 mg/kg): not detected | detection in urine samples after exposure ([3]; in vivo): not detected
